Data published in ChEMBL document CHEMBL1201862, “PubChem BioAssay data set” (2004).
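How tested: cells in 96-well plates exposed to compound for 48 hours at five concentrations. GI50 marks 50% less growth.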 The source made the active and inactive calls. No stated cut-off is given here; in the data, active = GI50 up to about 1.1 µM and inactive = higher.

Legend:
Assay in all cases: DTP human tumour cell line panel, 48 h
ACHN = test system: ACHN
EKVX = test system: EKVX
HCC 2998 = test system: HCC 2998
HCT-116 = test system: HCT-116
HCT-15 = test system: HCT-15
HOP-62 = test system: HOP-62
IGROV-1 = test system: IGROV-1
K562 = test system: K562
M14 = test system: M14
MDA-MB-435 = test system: MDA-MB-435
NCI/ADR-RES = test system: NCI/ADR-RES
OVCAR-5 = test system: OVCAR-5
RPMI-8226 = test system: RPMI-8226
RXF 393 = test system: RXF 393
SF-268 = test system: SF-268
SF-295 = test system: SF-295
SK-MEL-2 = test system: SK-MEL-2
SNB-75 = test system: SNB-75
SW-620 = test system: SW-620
UO-31 = test system: UO-31

SMILES	GI50 (ACHN)	GI50 (EKVX)	GI50 (HCC 2998)	GI50 (HCT-116)	GI50 (HCT-15) [µM]	GI50 (HOP-62)	GI50 (IGROV-1)	GI50 (K562)	GI50 (M14)	GI50 (MDA-MB-435)	GI50 (NCI/ADR-RES)	GI50 (OVCAR-5)	GI50 (RPMI-8226)	GI50 (RXF 393)	GI50 (SF-268)	GI50 (SF-295)	GI50 (SK-MEL-2)	GI50 (SNB-75)	GI50 (SW-620)	GI50 (UO-31)
O=C(O)CCS/C(=C\C(SCCC(=O)O)c1ccc(Cl)cc1)c1ccc(Cl)cc1 (stereo not given)	46.3 µM (inactive)	62.5 µM (inactive)	24.2 µM (inactive)	21.4 µM (inactive)	30.8	37.5 µM (inactive)	38.8 µM (inactive)	35.1 µM (inactive)	47.9 µM (inactive)	36.4 µM (inactive)	> 100 µM (inactive)	> 100 µM (inactive)	31 µM (inactive)	39.7 µM (inactive)	50 µM (inactive)	33.4 µM (inactive)	26.5 µM (inactive)	78.3 µM (inactive)	28.1 µM (inactive)	78 µM (inactive)
CCCCCC(/C=C/[C@@H]1CC(=O)C[C@H]1O[Si](C)(C)C(C)(C)C)OCOCCOC (stereo not given in full)	2.96 µM (inactive)	6.31 µM (inactive)	13.6 µM (inactive)	2.99 µM (inactive)	3.86	15.5 µM (inactive)	3.24 µM (inactive)	2.4 µM (inactive)	4.04 µM (inactive)	2.02 µM (inactive)	2.94 µM (inactive)	10 µM (inactive)	2.61 µM (inactive)	2.24 µM (inactive)	2.98 µM (inactive)	11 µM (inactive)	4.22 µM (inactive)	2.19 µM (inactive)	2.96 µM (inactive)	2.42 µM (inactive)
CCOC(=O)C(Cl)(NC(=O)OCc1ccccc1)C(F)(F)F (stereo not given)	> 100 µM (inactive)	> 100 µM (inactive)	> 100 µM (inactive)	> 100 µM (inactive)	> 100	> 100 µM (inactive)	> 100 µM (inactive)	> 100 µM (inactive)	> 100 µM (inactive)	> 100 µM (inactive)	> 100 µM (inactive)	> 100 µM (inactive)	> 100 µM (inactive)	> 100 µM (inactive)	> 100 µM (inactive)	> 100 µM (inactive)	> 100 µM (inactive)	> 100 µM (inactive)	> 100 µM (inactive)	> 100 µM (inactive)
